{"source": "patent US10028508B2", "about": "“Use of active compound compositions” (BAYER CROPSCIENCE AKTIENGESELLSCHAFT, priority 2014, dated 2018)", "tested_on": "Anopheles funestus metabolic-resistant strain FUMOZ-R", "test": "Metabolic-Resistant Anopheles Test (mortality on treated tile, wood, concrete)", "format": "in vivo", "conditions": "for mortality at 100 mg/m2: Clothianidin 100 mg/m2, read-out: Mortality Effect %; for mortality at 200 mg/m2: Clothianidin 200 mg/m2, read-out: Mortality Effect %", "experimental": "To produce a suitable preparation of active compound combination the active compounds deltamethrin and clothanidin were dissolved in acetone (for the control group only one active compound was dissolved in acetone). The active compound combination preparation (and the active compound preparations) were pipetted onto a glazed tile, wood and concrete and, after drying, adult mosquitoes of the species Anopheles funestus metabolic-resistant strain FUMOZ-R (Hunt et al., Med Vet Entomol. 2005 September; 19(3):271-5) are placed onto the treated tile, wood and concrete. The exposition time is 30 minutes.\n1 hour, 2 hour, 4 hour, 24 hours after contact to the treated surface, the mortality proportion of the test animals in % is determined. Here, 100% means that all mosquitoes have been killed; 0% means that none of the mosquitoes has been killed. The treated tile, wood and concrete was stored under stress conditions (30° C./80% rh). Measurement with the treated tile, wood and concrete was repeated 5 weeks (Table 1), 11 weeks (Table 2) and 60 weeks (Table 3) after the treatment with the active compound combination.", "key": {"[1]": {"conditions": "5 weeks after treatment, Concrete, 1 h after contact"}, "[2]": {"conditions": "5 weeks after treatment, Concrete, 2 h after contact"}, "[3]": {"conditions": "5 weeks after treatment, Concrete, 4 h after contact"}, "[4]": {"conditions": "5 weeks after treatment, Concrete, 24 h after contact"}, "[5]": {"conditions": "5 weeks after treatment, Tile, 1 h after contact"}, "[6]": {"conditions": "5 weeks after treatment, Tile, 2 h after contact"}, "[7]": {"conditions": "5 weeks after treatment, Tile, 4 h after contact"}, "[8]": {"conditions": "5 weeks after treatment, Tile, 24 h after contact"}, "[9]": {"conditions": "5 weeks after treatment, Wood, 1 h after contact"}, "[10]": {"conditions": "5 weeks after treatment, Wood, 2 h after contact"}, "[11]": {"conditions": "5 weeks after treatment, Wood, 4 h after contact"}, "[12]": {"conditions": "5 weeks after treatment, Wood, 24 h after contact"}, "[13]": {"conditions": "11 weeks after treatment, Concrete, 1 h after contact"}, "[14]": {"conditions": "11 weeks after treatment, Concrete, 2 h after contact"}, "[15]": {"conditions": "11 weeks after treatment, Concrete, 4 h after contact"}, "[16]": {"conditions": "11 weeks after treatment, Concrete, 24 h after contact"}, "[17]": {"conditions": "11 weeks after treatment, Tile, 1 h after contact"}, "[18]": {"conditions": "11 weeks after treatment, Tile, 2 h after contact"}, "[19]": {"conditions": "11 weeks after treatment, Tile, 4 h after contact"}, "[20]": {"conditions": "11 weeks after treatment, Tile, 24 h after contact"}, "[21]": {"conditions": "11 weeks after treatment, Wood, 1 h after contact"}, "[22]": {"conditions": "11 weeks after treatment, Wood, 2 h after contact"}, "[23]": {"conditions": "11 weeks after treatment, Wood, 4 h after contact"}, "[24]": {"conditions": "11 weeks after treatment, Wood, 24 h after contact"}, "[25]": {"conditions": "60 weeks after treatment, Concrete, 1 h after contact"}, "[26]": {"conditions": "60 weeks after treatment, Concrete, 2 h after contact"}, "[27]": {"conditions": "60 weeks after treatment, Concrete, 4 h after contact"}, "[28]": {"conditions": "60 weeks after treatment, Concrete, 24 h after contact"}, "[29]": {"conditions": "60 weeks after treatment, Tile, 1 h after contact"}, "[30]": {"conditions": "60 weeks after treatment, Tile, 2 h after contact"}, "[31]": {"conditions": "60 weeks after treatment, Tile, 4 h after contact"}, "[32]": {"conditions": "60 weeks after treatment, Tile, 24 h after contact"}, "[33]": {"conditions": "60 weeks after treatment, Wood, 1 h after contact"}, "[34]": {"conditions": "60 weeks after treatment, Wood, 2 h after contact"}, "[35]": {"conditions": "60 weeks after treatment, Wood, 4 h after contact"}, "[36]": {"conditions": "60 weeks after treatment, Wood, 24 h after contact"}}, "note": "Where two headings read alike, the source gives them in different places."}
{"smiles": "CN/C(=N\\[N+](=O)[O-])NCc1cnc(Cl)s1", "note": "[Clothianidin, clothianidin]", "values": [{"measurement": "mortality at 100 mg/m2", "setting": "[1]", "value": 15, "unit": "%"}, {"measurement": "mortality at 200 mg/m2", "setting": "[1]", "value": 3, "unit": "%"}, {"measurement": "mortality at 100 mg/m2", "setting": "[2]", "value": 10, "unit": "%"}, {"measurement": "mortality at 200 mg/m2", "setting": "[2]", "value": 17, "unit": "%"}, {"measurement": "mortality at 100 mg/m2", "setting": "[3]", "value": 30, "unit": "%"}, {"measurement": "mortality at 200 mg/m2", "setting": "[3]", "value": 30, "unit": "%"}, {"measurement": "mortality at 100 mg/m2", "setting": "[4]", "value": 93, "unit": "%"}, {"measurement": "mortality at 200 mg/m2", "setting": "[4]", "value": 83, "unit": "%"}, {"measurement": "mortality at 100 mg/m2", "setting": "[5]", "value": 0, "unit": "%"}, {"measurement": "mortality at 200 mg/m2", "setting": "[5]", "value": 0, "unit": "%"}, {"measurement": "mortality at 100 mg/m2", "setting": "[6]", "value": 7, "unit": "%"}, {"measurement": "mortality at 200 mg/m2", "setting": "[6]", "value": 0, "unit": "%"}, {"measurement": "mortality at 100 mg/m2", "setting": "[7]", "value": 7, "unit": "%"}, {"measurement": "mortality at 200 mg/m2", "setting": "[7]", "value": 10, "unit": "%"}, {"measurement": "mortality at 100 mg/m2", "setting": "[8]", "value": 80, "unit": "%"}, {"measurement": "mortality at 200 mg/m2", "setting": "[8]", "value": 90, "unit": "%"}, {"measurement": "mortality at 100 mg/m2", "setting": "[9]", "value": 7, "unit": "%"}, {"measurement": "mortality at 200 mg/m2", "setting": "[9]", "value": 7, "unit": "%"}, {"measurement": "mortality at 100 mg/m2", "setting": "[10]", "value": 20, "unit": "%"}, {"measurement": "mortality at 200 mg/m2", "setting": "[10]", "value": 10, "unit": "%"}, {"measurement": "mortality at 100 mg/m2", "setting": "[11]", "value": 27, "unit": "%"}, {"measurement": "mortality at 200 mg/m2", "setting": "[11]", "value": 20, "unit": "%"}, {"measurement": "mortality at 100 mg/m2", "setting": "[12]", "value": 93, "unit": "%"}, {"measurement": "mortality at 200 mg/m2", "setting": "[12]", "value": 93, "unit": "%"}, {"measurement": "mortality at 100 mg/m2", "setting": "[13]", "value": 23, "unit": "%"}, {"measurement": "mortality at 200 mg/m2", "setting": "[13]", "value": 3, "unit": "%"}, {"measurement": "mortality at 100 mg/m2", "setting": "[14]", "value": 67, "unit": "%"}, {"measurement": "mortality at 200 mg/m2", "setting": "[14]", "value": 17, "unit": "%"}, {"measurement": "mortality at 100 mg/m2", "setting": "[15]", "value": 73, "unit": "%"}, {"measurement": "mortality at 200 mg/m2", "setting": "[15]", "value": 47, "unit": "%"}, {"measurement": "mortality at 100 mg/m2", "setting": "[16]", "value": 93, "unit": "%"}, {"measurement": "mortality at 200 mg/m2", "setting": "[16]", "value": 83, "unit": "%"}, {"measurement": "mortality at 100 mg/m2", "setting": "[17]", "value": 7, "unit": "%"}, {"measurement": "mortality at 200 mg/m2", "setting": "[17]", "value": 7, "unit": "%"}, {"measurement": "mortality at 100 mg/m2", "setting": "[18]", "value": 10, "unit": "%"}, {"measurement": "mortality at 200 mg/m2", "setting": "[18]", "value": 20, "unit": "%"}, {"measurement": "mortality at 100 mg/m2", "setting": "[19]", "value": 13, "unit": "%"}, {"measurement": "mortality at 200 mg/m2", "setting": "[19]", "value": 43, "unit": "%"}, {"measurement": "mortality at 100 mg/m2", "setting": "[20]", "value": 37, "unit": "%"}, {"measurement": "mortality at 200 mg/m2", "setting": "[20]", "value": 73, "unit": "%"}, {"measurement": "mortality at 100 mg/m2", "setting": "[21]", "value": 0, "unit": "%"}, {"measurement": "mortality at 200 mg/m2", "setting": "[21]", "value": 13, "unit": "%"}, {"measurement": "mortality at 100 mg/m2", "setting": "[22]", "value": 3, "unit": "%"}, {"measurement": "mortality at 200 mg/m2", "setting": "[22]", "value": 17, "unit": "%"}, {"measurement": "mortality at 100 mg/m2", "setting": "[23]", "value": 33, "unit": "%"}, {"measurement": "mortality at 200 mg/m2", "setting": "[23]", "value": 17, "unit": "%"}, {"measurement": "mortality at 100 mg/m2", "setting": "[24]", "value": 27, "unit": "%"}, {"measurement": "mortality at 200 mg/m2", "setting": "[24]", "value": 40, "unit": "%"}, {"measurement": "mortality at 100 mg/m2", "setting": "[25]", "value": 0, "unit": "%"}, {"measurement": "mortality at 200 mg/m2", "setting": "[25]", "value": 0, "unit": "%"}, {"measurement": "mortality at 100 mg/m2", "setting": "[26]", "value": 3, "unit": "%"}, {"measurement": "mortality at 200 mg/m2", "setting": "[26]", "value": 7, "unit": "%"}, {"measurement": "mortality at 100 mg/m2", "setting": "[27]", "value": 20, "unit": "%"}, {"measurement": "mortality at 200 mg/m2", "setting": "[27]", "value": 17, "unit": "%"}, {"measurement": "mortality at 100 mg/m2", "setting": "[28]", "value": 37, "unit": "%"}, {"measurement": "mortality at 200 mg/m2", "setting": "[28]", "value": 63, "unit": "%"}, {"measurement": "mortality at 100 mg/m2", "setting": "[29]", "value": 0, "unit": "%"}, {"measurement": "mortality at 200 mg/m2", "setting": "[29]", "value": 0, "unit": "%"}, {"measurement": "mortality at 100 mg/m2", "setting": "[30]", "value": 0, "unit": "%"}, {"measurement": "mortality at 200 mg/m2", "setting": "[30]", "value": 3, "unit": "%"}, {"measurement": "mortality at 100 mg/m2", "setting": "[31]", "value": 0, "unit": "%"}, {"measurement": "mortality at 200 mg/m2", "setting": "[31]", "value": 7, "unit": "%"}, {"measurement": "mortality at 100 mg/m2", "setting": "[32]", "value": 17, "unit": "%"}, {"measurement": "mortality at 200 mg/m2", "setting": "[32]", "value": 43, "unit": "%"}, {"measurement": "mortality at 100 mg/m2", "setting": "[33]", "value": 0, "unit": "%"}, {"measurement": "mortality at 200 mg/m2", "setting": "[33]", "value": 0, "unit": "%"}, {"measurement": "mortality at 100 mg/m2", "setting": "[34]", "value": 0, "unit": "%"}, {"measurement": "mortality at 200 mg/m2", "setting": "[34]", "value": 3, "unit": "%"}, {"measurement": "mortality at 100 mg/m2", "setting": "[35]", "value": 0, "unit": "%"}, {"measurement": "mortality at 200 mg/m2", "setting": "[35]", "value": 3, "unit": "%"}, {"measurement": "mortality at 100 mg/m2", "setting": "[36]", "value": 10, "unit": "%"}, {"measurement": "mortality at 200 mg/m2", "setting": "[36]", "value": 17, "unit": "%"}]}
